Assay results taken from paper PMC9068772, “Discovery of first-in-class nanomolar inhibitors of heptosyltransferase I reveals a new aminoglycoside target and potential alternative mechanism of action” (Scientific Reports, 2022).
Values joined by “and” are separate entries in the source; they are usually repeats but may differ in a detail not shown here. Equal values may be shown once.

Assays:
[1] = target: T1, Heptosyltransferase I (HepI) WT (Escherichia coli, UniProt P24173); test: HepI inhibition, ADP/NADH coupled assay (wild type); format: biochemical, E. coli K12; details: for kcat: HepI WT in presence of inhibitor; for Ki: 10 μM ODLA, inhibitor varied
T1 construct: made in house; host or cells: E. coli One Shot BL-21-AI
Method: As previously reported[11],[14],[15], an ADP/NADH coupled assay was used to monitor HepI activity by monitoring the absorbance change at 340 nm at 37 °C on a Cary Bio 100 UV–Vis Spectrometer. Under normal conditions, the assay buffer was composed of 50 mM HEPES, 50 mM KCl, 10 mM MgCl2, pH 7.5. The coupled enzyme reaction additionally contained 100 μM phosphoenolpyruvate, 100 μM NADH, 100 μM dithiothreitol (DTT) and 0.05 U/μL of both pyruvate kinase and lactate dehydrogenase. 100 μM ADPH was used when ODLA concentration was varied and 100 μM ODLA was used when ADPH was varied. Once a stable baseline was established (~ 5 min), the reaction was initiated by addition of HepI to a final concentration of 50 nM or 100 nM (for high and lower substrate concentrations respectively) and all reported reaction rates are after background subtraction. When running 12 samples at once, plastic cuvette stirs and a repeat pipettor was used to inject 200 μL enzyme. Inhibition of HepI was monitored using the same ADP/NADH coupled assay, all conditions of the assay were the same as previously described unless otherwise stated. Ki values for each of the compounds were determined by varying compound final concentration from 100 μm to 10 nm, and a final concentration of 10 μM ODLA. Competition assays against ADPH were done with excess ODLA (100 μM) and varying ADPH from 2–0.25 μM. Competition assays against ODLA were done with excess ADPH (100 μM) and varying ODLA from 2–0.25 μM. Reactions were started with addition of enzyme and inhibitor was varied from 30–0.01 μM. Kinetics were fit to Lineweaver-Burke (Eq. 1), competitive (Eq. 2), non-competitive (Eq. 3), mixed (Eq. 4), Dixon (Eq. 5), or Cornish-Bowden (Eq. 6) models. All fitting and plotting was done through MATLAB R2018A.1 1/V1/[S]=KM/Vmax[S]+1/Vmax 2 V[S]=Vmax[S]/KM1+[I]/Ki+[S] 3 V[S]=Vmax[S]/1+([I]/Ki)/KM+[S] 4 V[S]=Vmax[S]/KM(1+[I]/Ki)+[S](1+[I]/αKi) 5 1/V[I]=KM1+I/Ki+[S]1+I/αKi/Vmax[S] 6 [S]/V[I]=KM1+I/Ki+[S]1+I/αKi/Vmax

HepI = target: T2, HepI (Escherichia coli, UniProt P24173); test: Circular dichroism thermal melt of HepI; format: binding, E. coli K12; details: CD melt, HepI plus ligand alone
T2 construct: made in house; host or cells: E. coli One Shot BL-21-AI
Method: Circular dichroism melt experiments were performed in a Jasco J-810 spectropolarimeter in Starna 21-Q-2 cells (minimum volume 400 µL) sealed with Teflon tape to prevent evaporation. Parameters include 3 accumulations of data collected between 195–275 nm as a function of temperature (10–95 °C with 5° increments) at a ramp rate of 2°/min and a scanning rate of 50 nm/min. Samples were prepared by diluting a mixture of 5 μM HepI and some combination of 250 μM substrate/product and/or 100 μM inhibitor in a buffer of 10 mM Tris–HCl and 100 mM KCl (pH = 7.5). CD data was analyzed via in house script written in MATLAB R2018A that average a set of triplicate data, normalizes to a percent unfolded (assuming the protein is fully folded at 5 °C) at 222 nm as a function of temperature and fits to a sigmoid curve to determine the melt temperature (TM).

T2 sequence (P24173 whole entry): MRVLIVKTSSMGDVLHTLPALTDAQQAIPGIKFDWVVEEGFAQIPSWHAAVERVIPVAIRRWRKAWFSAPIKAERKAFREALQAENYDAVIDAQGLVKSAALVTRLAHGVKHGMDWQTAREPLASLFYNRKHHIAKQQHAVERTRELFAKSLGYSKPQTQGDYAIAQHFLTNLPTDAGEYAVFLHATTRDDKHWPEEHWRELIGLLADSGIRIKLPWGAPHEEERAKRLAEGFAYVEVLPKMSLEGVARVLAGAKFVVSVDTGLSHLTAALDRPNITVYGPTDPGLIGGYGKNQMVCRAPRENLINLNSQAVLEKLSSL
T1 sequence (P24173 whole entry): as above

| Structure (SMILES) | kcat [1] [s⁻¹] | Ki ([1]; HepI WT) | Type of inhibition with ODLA ([1]; HepI WT, excess ADPH, ODLA varied, Lineweaver–Burk, Dixon, Cornish-Bowden) | Extent of unfolding of HepI with ligand (HepI) | Melting temperature (Tm) of HepI with ligand (HepI) |
| --- | --- | --- | --- | --- | --- |
| NCC[C@H](O)C(=O)N[C@@H]1C[C@H](N)[C@@H](O[C@H]2O[C@H](CN)[C@@H](O)[C@H](O)[C@H]2O)[C@H](O)[C@H]1O[C@H]1O[C@H](CO)[C@@H](O)[C@H](N)[C@H]1O [Amikacin] | 0.138 ± 0.001 | 4.3 µM and 4.26 µM | – | – | – |
| NC[C@H]1O[C@H](O[C@H]2[C@H](O)[C@@H](O[C@H]3O[C@H](CO)[C@@H](O)[C@H](N)[C@H]3O)[C@H](N)C[C@@H]2N)[C@H](N)[C@@H](O)[C@@H]1O [Kanamycin B] | 0.149 ± 0.007 | 0.99 ± 0.119 µM | Competitive | – | – |
| Nc1ncnc2c1ncn2[C@@H]1O[C@H](COP(=O)(O)OP(=O)(O)O[C@@H]2O[C@H]([C@@H](O)CO)[C@@H](O)[C@H](O)[C@@H]2O)[C@@H](O)[C@H]1O [ADPH, ADP-L-glycero-β-D-manno-heptose] | – | – | – | ~ 100% | does not induce any changes in the melting temperature |
| Nc1ncnc2c1ncn2[C@@H]1O[C@H](COP(=O)(O)OP(=O)(O)O)[C@@H](O)[C@H]1O [ADP, Adenosine disphosphate] | – | – | – | – | melts similarly to HepI with ADPH |
